Source: PMC8838787, “The Antiproliferative and Apoptotic Effects of a Novel Quinazoline Carrying Substituted-Sulfonamides: In Vitro and Molecular Docking Study” (Molecules, 2022)

Assays:
[1] = test system: MCF-7 (breast) cancer cells; assay: MTT cell viability assay, MCF-7; assay type: cell-based, human; conditions: Homo sapiens, MCF7, 48 h, average ± SD (n = 3)
Method: (§1) Compounds 4a–n were subjected to the cytotoxicity screening of the cell lines MCF-7 (breast), LoVo (colon), HepG2 (liver) and A549 (lung) carcinoma cells as well as HUVEC normal cell lines. The MTT assay was employed to assess cytotoxicity after 48 h of treatment with different concentrations of each compound and doxorubicin was used as a reference drug. The results were presented in Table 1 as growth inhibitory concentration (IC50 values).
(§2) Cell viability was determined using 3-(4,5-dimethylthiazol-2-yl)-2,5-diphenyl tetrazolium bromide (MTT) assay as stated previously. In brief, A549 (lung), HepG2 (liver), LoVo (colon), MCF-7 (breast) cancer cells as well as normal cells (HUVEC) were seeded in 96-well plates (10^5 per well) and compounds were added in a different final concentration. All cells were treated for 48 h, and then 10μL of MTT reagent (5 mg/mL) was added to each well and further incubated for 4 h. Thereafter, 0.1 mL of acidified isopropanol was added to solubilize formazan product and the developed color was measured at 570 nm in Microplate ELISA Reader (BioTek, Elx-800, Winooski, VT, USA). The IC50 values (concentration required for 50% inhibition of cell viability) were calculated using dose response curve. Cell viability was calculated as = (Ab Treated/Ab Control) × 100.
(§3) The A549, HepG2, LoVo and MCF-7 cancer cell lines were obtained from the German Collection of Microorganisms and Cell Cultures (DSMZ) (Braunschweig, Germany). For Human umbilical vein endothelial cells (HUVEC cells), it was purchased from American Type Culture Collection (16549; Cat no. PCS-100-010; ATTCC, Manassas, VA, USA).

[2] = test system: HepG2 (liver) cancer cells; assay: MTT cell viability assay, HepG2; assay type: cell-based; conditions: Homo sapiens, 48 h, average ± SD (n = 3)
Method: as §1, §2, §3

A549 (lung) cancer cells = assay: MTT cell viability assay, A549; assay type: cell-based; conditions: average ± SD (n = 3)
Method: as §1, §2, §3

Row | SMILES | IC50 [1] | IC50 [2] | IC50 (A549 (lung) cancer cells; 48 h) | IC50 (A549 (lung) cancer cells; Homo sapiens, A549, 48 h)
1 | COc1cccc2c(=O)n(-c3ccc(S(=O)(=O)NCC(=O)Nc4ccc(C)cc4)cc3)c(SCC(=O)Nc3ccc(C)cc3)nc12 [Compound 4d] | 2.5 ± 0.2 µM | 9 ± 0.3 µM | 6.6 ± 0.22 µM | 5.6 µM
2 | CCc1cccc(NC(=O)CNS(=O)(=O)c2ccc(-n3c(SCC(=O)Nc4cccc(CC)c4)nc4c(OC)cccc4c3=O)cc2)c1 [Compound 4f, N-(3-ethylphenyl)-2-((3-(4-(N-(2-((3-ethylphenyl)amino)-2-oxoethyl)sulfamoyl)-phe-nyl)-8-methoxy-4-oxo-3,4-dihydroquinazolin-2yl)thio)acetamide] | 5 ± 0.24 µM | 11.7 ± 2 µM | – | 10.1 ± 0.24 µM
